According to patent US10117819B2, “Composition for hair frizz reduction” (The Procter & Gamble Company, priority 2014, dated 2018):

Assay: Penetration amount of moisture control material inside hair (extraction, HPLC)
Details: compared to corresponding composition without 2-hydroxyethyl urea (XXVII and XXVIII)
Method: Each hair tress is extracted 3 times with 0.1% TFA (Trifluoroacetic acid) in methanol and the individual extracts are analyzed separately using HPLC method.

For `O=C(O)c1ccccc1O` [Salicylic acid], the “Increase of penetration inside hair with 2% of 2-hydroxyethyl urea” value was 14%.
